Measured values taken from US4672068A, “Antihypertensive 1,4-dihydropyridines having a conjugated ester” (Fujirebio Kabushiki Kaisha, priority 1984, dated 1987).

Experiments:
[1] = system: Male spontaneously hypertensive rats (SHR), arterial blood pressure; assay: Depressor response after intravenous administration (30 μg/kg), Table 1; assay type: in vivo, rat; details: for Duration: '90<' means greater than 90
Procedure, shortened: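 Conscious restrained SHR with mean arterial pressure above 140 mmHg; pressure recorded via abdominal aortic catheter and transducer. Dosing was at least 2 h after surgery, through a caudal vein catheter. Compound was given in 1.5% PVP/ethanol diluted with 0.9% saline.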

[2] = system: Male SHR, systolic blood pressure; assay: Systolic blood pressure by tail cuff method, oral administration (3 mg/kg), Table 4; assay type: in vivo, rat; details: conscious SHR; for Duration: '24<' means greater than 24
Method: Systolic blood pressure was measured by the tail cuff method with electrophygmomanometer (PE-300, made by Narco Co.). Each derivative (3 mg/kg) was administered orally, suspended in 5% gum arabic solution.

[3] = system: Male spontaneously hypertensive rats (SHR), arterial blood pressure; assay: Depressor response after intraduodenal administration (1 mg/kg), Table 2; assay type: in vivo, rat; details: for Half-life: '120<' means greater than 120
Method: Arterial blood pressure was measured through the catherized artery with a pressure transducer (MPU-0.5, manufactured by Nihon Kohden Kabushiki Kaisha). The catheter was inserted into the abdominal aorta via the median coccygcal artery of SHR under light ether anesthesia. The recordings were made on a rectigraph (manufactured by Sanei Sokki Kabushiki Kaisha). The 1,4-dihydropyridine derivatives prepared in the foregoing examples were administered with catheter which was inserted previously into the caudal vein or duodenum at least two hours after the operation. SHR were restrained with wire mesh cage immediately after the operation.

[4] = in vivo; details: mouse, iv
Method: Acute toxicity of several derivatives was tested with male ddy mice weighed 15-30 grams by the up and down method. Each derivative was dissolved in 1.5% PVP/ethanol solution, and diluted with a saline solution. Such derivative solution was injected into the caudal vein, and the acute toxicity was determined.

[5] = system: rat (SHR), blood pressure and heart rate; assay: Depressor response of trans- and cis-forms, dose-response intravenous, Tables 5 and 6; assay type: in vivo; details: for ED40: Rattus norvegicus, intravenous, from regression line
Method: Male spontaneously hypertensive rats (SHR) which had mean arterial blood pressures higher than 140 mmHg were used for the experiments. Arterial blood pressure was measured through the catherized artery with a pressure transducer (MPU-0.5, manufactured by Nihon Kohden Kabushiki Kaisha). The catheter was inserted into the abdominal aorta via the median coccygcal artery of SHR under light ether anesthesia. The recordings were made on a rectigraph (manufactured by Sanei Sokki Kabushiki Kaisha). The 1,4-dihydropyridine derivatives prepared in the foregoing examples were administered with catheter which was inserted previously into the caudal vein or duodenum at least two hours after the operation. SHR were restrained with wire mesh cage immediately after the operation. […]

[6] = male ddy mice, caudal vein injection, '60<' means greater than 60

Row | SMILES | The time to reach the lowest BP [1] [min] | ΔBP (Maximum depressor response) [1] [mmHg] | Duration [1] [min] | ΔBP After 1 hour [2] [mmHg] | ΔBP After 3 hours [2] [mmHg] | Duration [2] [h] | The time to reach the lowest BP [3] [min] | ΔBP (Maximum depressor response) [3] [mmHg] | Half-life [3] [min] | LD50 [4, 6] [mg/kg] | Depressure Response MaxΔBP ([5]; 10 μg/kg i.v.) [mmHg] | Depressure Response Peak ([5]; 10 μg/kg i.v.) [min] | MaxΔHR (Heart rates) ([5]; 10 μg/kg i.v.) [beats/min] | T 1/2 (Halflife) ([5]; 10 μg/kg i.v.) [min] | Depressure Response MaxΔBP ([5]; 30 μg/kg i.v.) [mmHg] | Depressure Response Peak ([5]; 30 μg/kg i.v.) [min] | MaxΔHR (Heart rates) ([5]; 30 μg/kg i.v.) [beats/min] | T 1/2 (Halflife) ([5]; 30 μg/kg i.v.) [min] | Depressure Response MaxΔBP ([5]; 100 μg/kg i.v.) [mmHg] | Depressure Response Peak ([5]; 100 μg/kg i.v.) [min] | further results
1 | COC(=O)C1=C(C)NC(C)=C(C(=O)OCCN(C)Cc2ccccc2)C1c1cccc([N+](=O)[O-])c1.Cl (stereo not shown) [B, 4-(m-nitrophenyl)-2,6-dimethyl-1,4-dihydropyridine-3,5-dicarboxylic acid-3-methyl ester-5-[2-(benzylmethylamino)-ethyl]ester hydrochloride, reference compound] | 0.6 | 58.3 | 45 to 90 | -27 | -4.5 | < 3 | 10.7 | 35 | 46.7 | 9.7 | – | – | – | – | – | – | – | – | – | – | –
2 | COC(=O)C1=C(C)NC(C)=C(C(=O)OCC/C=C\c2ccc3ccccc3c2)C1c1cccc([N+](=O)[O-])c1 (stereo not drawn) [Example 57, Methyl (Z)-4-(2-naphthyl)-3-butenyl 4-(3-nitrophenyl)-2,6-dimethyl-1,4-dihydropyridine-3,5-dicarboxylate (cis)] | 2.6 | 26.8 | – | – | – | – | – | – | – | > 75 | 12.0 | 3.2 | 23.3 | 14.0 | 26.8 | 2.6 | 62.5 | 15.0 | 68.5 | 3.8 | MaxΔHR (Heart rates) ([5]; 100 μg/kg i.v.): 120 beats/min; T 1/2 (Halflife) ([5]; 100 μg/kg i.v.): 25.0 min; ED40 [5]: 0.0408 mg/kg
3 | COC(=O)C1=C(C)NC(C)=C(C(=O)OCC=Cc2ccco2)C1c1cccc([N+](=O)[O-])c1 (stereo not shown) [Example 7, 3-(2furyl)-2-propenyl methyl 4-(3-nitrophenyl)-2,6-dimethyl-1,4-dihydropyridine-3,5-dicarboxylate] | – | – | – | – | – | – | 105 | 20 | > 120 | > 60 | – | – | – | – | – | – | – | – | – | – | –
4 | COC(=O)C1=C(C)NC(C)=C(C(=O)OC/C=C/c2ccccc2)C1c1cccc([N+](=O)[O-])c1 (stereo not drawn) [Example 1, cinnamyl methyl 4-(3-nitrophenyl)-2,6-dimethyl-1,4-dihydropyridine-3,5-dicarboxylate (trans)] | 1.7 | 44 | > 90 | -75 | -80.5 | 7 to 24 | 43.7 | 35.0 | > 120 | – | 35.0 | 2.0 | 28.3 | 32.6 | 52.2 | 1.8 | 65.3 | 26.7 | 69.0 | 2.0 | MaxΔHR (Heart rates) ([5]; 100 μg/kg i.v.): 32.5 beats/min; T 1/2 (Halflife) ([5]; 100 μg/kg i.v.): 48.5 min; ED40 [5]: 0.0156 mg/kg
5 | COC(=O)C1=C(C)NC(C)=C(C(=O)OC(C=Cc2ccccc2)c2ccccc2)C1c1cccc([N+](=O)[O-])c1 (stereo not shown) [Example 27, 1,3-diphenyl-2-propenyl methyl 4-(3-nitrophenyl)-2,6-dimethyl-1,4-dihydropyridine-3,5-dicarboxylate] | 56 | 45 | > 240 | -130 | -113 | – | 170 | 82 | > 240 | – | – | – | – | – | – | – | – | – | – | – | –
6 | COC(=O)C1=C(C)NC(C)=C(C(=O)OCCC=Cc2ccc(C#N)cc2)C1c1cccc([N+](=O)[O-])c1 (stereo not shown) [Example 17, 4-(4-cyanophenyl)-3-butenyl methyl 4-(3-nitrophenyl)-2,6-dimethyl-1,4-dihydropyridine-3,5-dicarboxylate] | 1.0 | 70 | > 80 | – | – | – | 180 | 25 | > 200 | 45 | – | – | – | – | – | – | – | – | – | – | –
7 | COC(=O)C1=C(C)NC(C)=C(C(=O)OCC/C=C/c2ccc3ccccc3c2)C1c1cccc([N+](=O)[O-])c1 (stereo not drawn) [12 (trans), 4-β-naphthyl-3-butenyl methyl 4-(3-nitrophenyl)-2,6-dimethyl-1,4-dihydropyridine-3,5-dicarboxylate] | 3.0 | 50 | > 90 | – | – | – | 50 | 25 | 100 | – | 21.7 | 2.8 | 43.3 | 11.3 | 54.8 | 4.1 | 90.0 | 16.0 | 72.5 | 4.3 | MaxΔHR (Heart rates) ([5]; 100 μg/kg i.v.): 80.0 beats/min; T 1/2 (Halflife) ([5]; 100 μg/kg i.v.): 37.5 min; ED40 [5]: 0.0199 mg/kg; LD50 [4]: > 60 mg/kg
8 | COC(=O)C1=C(C)NC(C)=C(C(=O)OCCC=Cc2ccc(SC)cc2)C1c1cccc([N+](=O)[O-])c1 (stereo not shown) [Example 24, 4-(p-methylthiophenyl)-3-butenylmethyl 4-(3-nitrophenyl)-2,6-dimethyl-1,4-dihydropyridine-3,5-dicarboxylate] | 2.1 | 60 | 120 | – | – | – | 160 | 27 | > 160 | 50 | – | – | – | – | – | – | – | – | – | – | –
9 | COC(=O)C1=C(C)NC(C)=C(C(=O)OC)C1c1ccccc1[N+](=O)[O-] [A, 4-(o-nitrophenyl)-2,6-dimethyl-1,4-dihydropyridine-3,5-dicarboxylic acid dimethyl ester, reference compound] | 0.9 | 18.7 | 35.6 ± 6.5 | -45 | -22.0 | < 7 | 6.0 | 48.3 | – | – | – | – | – | – | – | – | – | – | – | – | –
10 | COC(=O)C1=C(C)NC(C)=C(C(=O)OCC#Cc2ccccc2)C1c1cccc([N+](=O)[O-])c1 (stereo not shown) [Example 55, Methyl phenylpropargyl 4-(3-nitrophenyl)-2,6-dimethyl-1,4-dihydropyridine-3,5-dicarboxylate] | 2 | 55 | > 90 | -65 | -75 | > 24 | 60 | 45 | > 240 | > 60 | – | – | – | – | – | – | – | – | – | – | –
